Test results reported in patent publication US8298996B2, “Low toxicity shale hydration inhibition agent and method of use” (M-I L.L.C., priority 2007, dated 2012).
Read-outs that look alike come from different tables or passages of the source.

Tests used:
[1] = test system: luminescent bacteria; conditions: for EC50 (15): reduces light emission by 50% at 15 minutes at 15° C.; for toxicity results: summary of Tables 6-9
[2] = for 10′ Gel / Viscosity (cps) at 3 rpm / YP: after hot rolled at 150° F., about 10 ppb inhibitor in tap water; for shale inhibiting characteristics: summary of Tables 6-9

| Compound | EC50 (15) [1] [%] | toxicity results [1] | 10′ Gel ([2]; 50 ppb Bentonite) | Viscosity (cps) at 3 rpm ([2]; 50 ppb Bentonite) [cps] | YP ([2]; 50 ppb Bentonite) | 10′ Gel ([2]; 60 ppb Bentonite) | Viscosity (cps) at 3 rpm ([2]; 60 ppb Bentonite) [cps] | YP ([2]; 60 ppb Bentonite) | 10′ Gel ([2]; 70 ppb Bentonite) | Viscosity (cps) at 3 rpm ([2]; 70 ppb Bentonite) [cps] | YP ([2]; 70 ppb Bentonite) | shale inhibiting characteristics [2] |
| --- | --- | --- | --- | --- | --- | --- | --- | --- | --- | --- | --- | --- |
| Triethylamine Dimethyl Sulfate [A (Triethylamine Dimethyl Sulfate)] | 92.16 | good | 3 | 2 | 4 | 4 | 3 | 4 | 17 | 12 | 48 | good |
| Triethylamine Diethyl Sulfate | 100 | good | 7 | 4 | 6 | 9 | 4 | 8 | 14 | 8 | 45 | good |
| [Cl-].[K+] [Potassium Chloride, reference compound] | – | – | 26 | 12 | 9 | 63 | 48 | 45 | 300 | 143 | 136 | – |
